# Test results as given in US20220008447A1, “Rosacea Treatment Method” (priority 2019, published 2022).
# Assays:
# rosacea = conditions: cited from earlier work
# patient with rosacea = experiment: Application b.i.d. of other Delphinidin topical formulations to the face of a rosacea patient (Examples 11-13, present tense); type: in vivo, human
# Description: A topical gel is made with delphinidin 3,5-O-diglucoside 7% (w/w) in a standard cosmetic disappearing gel base. Application b.i.d. to the face of a patient with lupus-related rosacea, for at least about one month alleviates lupus-related skin inflammation and the patient maintains normal, healthy skin. A topical cream is made with delphinidin 6% (w/w) in a standard cosmetic lipophilic cream base. […] A topical cream is made with delphinidin 3-O-sambubioside 5-O-glucoside 3% (w/w) in a standard cosmetic disappearing cream base. Application b.i.d. to the face of a patient with papulopustular rosacea with transient, central face pustules for two months reduces central facial erythema and eliminates transient central face pustules.
# [1] = Example 13, 3% (w/w) disappearing cream, papulopustular rosacea, two months
compound,measurement,setting,value
CC[C@H]1OC(=O)[C@H](C)[C@@H](O[C@H]2C[C@@](C)(OC)[C@@H](O)[C@H](C)O2)[C@H](C)[C@@H](O[C@@H]2O[C@H](C)C[C@H](N(C)C)[C@H]2O)[C@](C)(O)C[C@@H](C)CN(C)[C@H](C)[C@@H](O)[C@]1(C)O [Azithromycin],efficacy compared with 100 mg doxycycline,rosacea; only one study,may be as effective as 100 mg doxycycline
O=C(O)CCCCCCCC(=O)O [azelaic acid],reducing rosacea symptoms,rosacea; prior-art treatment,effective and safe
same,side effects,rosacea; prior-art treatment,"caused mild burning, stinging or irritation"
same,time until improvements appear,rosacea; prior-art treatment,three to six
Brc1c(NC2=NCCN2)ccc2nccnc12 [brimonidine],duration of effect on redness after being applied,rosacea; prior-art treatment,up to 12 hours
"OC[C@H]1O[C@@H](Oc2cc3c(O[C@@H]4O[C@H](CO)[C@@H](O)[C@H](O)[C@H]4O)cc(O)cc3[o+]c2-c2cc(O)c(O)c(O)c2)[C@H](O)[C@@H](O)[C@@H]1O [delphinidin 3,5-O-diglucoside]",lupus-related skin inflammation,"patient with rosacea; Example 11, 7% (w/w) topical gel, lupus-related rosacea, at least about one month",alleviates
OC[C@H]1O[C@@H](Oc2cc(O)cc3[o+]c(-c4cc(O)c(O)c(O)c4)c(O[C@@H]4O[C@H](CO)[C@@H](O)[C@H](O)[C@H]4O[C@@H]4OC[C@@H](O)[C@H](O)[C@H]4O)cc23)[C@H](O)[C@@H](O)[C@@H]1O [delphinidin 3-O-sambubioside 5-O-glucoside],central facial erythema,patient with rosacea; [1],reduces
same,transient central face pustules,patient with rosacea; [1],eliminates
"Oc1cc(O)c2cc(O)c(-c3cc(O)c(O)c(O)c3)[o+]c2c1 [delphinidin, 2-(3,4,5-trihydroxyphenyl) chromenylium-3,5,7-triol]","flushing, persistent central facial erythema and telangiectasia","patient with rosacea; Example 12, 6% (w/w) lipophilic cream, erythematotelangiectatic rosacea, two weeks",measurably reduces
C[C@H]1c2cccc(O)c2C(=O)C2=C(O)[C@]3(O)C(=O)C(C(N)=O)=C(O)[C@@H](N(C)C)[C@@H]3[C@@H](O)[C@@H]21 [doxycycline],side effects of low dose compared with 100 mg,"rosacea; low dose, 40 mg",much fewer side effects of diarrhea and nausea
CC1=C(/C=C/C(C)=C/C=C/C(C)=C\C(=O)O)C(C)(C)CCC1 [isotretinoin],"efficacy compared with doxycycline, pimples and pustules","rosacea; low dose, 0.3 mg/kg",slightly more effective than 50-100 mg doxycycline
Cc1ncc([N+](=O)[O-])n1CCO [metronidazole],reducing rosacea symptoms,rosacea; prior-art treatment,effective and safe
same,side effects,rosacea; prior-art treatment,"very few people experienced mild itching, skin irritation and dry skin"
same,time until improvements appear,rosacea; prior-art treatment,three to six
Ivermectin,efficacy compared with placebo and metronidazole,rosacea; prior-art treatment,more effective than placebo and slightly more effective than metronidazole
